According to patent publication US9801738B2, “Liquid cast biodegradable arterial stent” (Northwestern University, priority 2010, dated 2017):

Legend:
neointimal hyperplasia = assay: rat carotid artery injury model, inhibition of neointimal hyperplasia by NO donors; type: in vivo
Description: Using the standard rat carotid artery injury model, the efficacy of two different diazeniumdiolates with markedly different half-lives at inhibiting neointimal hyperplasia were evaluated. […] The two different NO donors investigated were: 1-[2-(carboxylato)pyrrolidin-1-yl]diazen-1-ium-1,2-diolate (PROLI/NO), a short half-life donor, and diazeniumdiolated poly(acrylonitrile) (PAN/NO), a long half-life donor.
To date, it remains unknown how much NO is required in the vasculature to inhibit the subsequent neointimal hyperplasia from developing in humans. In order to estimate how much NO is required in the vasculature to inhibit the subsequent neointimal hyperplasia from developing in humans, the observed NO release may be compared to: 1) data from animal experiments, and 2) known endogenous NO production in humans. […] Because diazeniumdiolates release 2 moles of NO per mole of compound upon reaction with hydrogen ions, it follows that 20 mg of PROLI/NO releases 160 μmoles of NO. Thus, the current formulation that releases 112 μmole/gm (FIG. 10) is similar to what has been used in rat models. An alternative method of estimating whether the current NO-releasing material will produce sufficient NO is to compare the material against known rates of endogenous NO release. […]

[1] = cited from earlier work

Row | SMILES | inhibition of neointimal hyperplasia (neointimal hyperplasia; applied to the periadventitial aspect of an injured artery, 20 mg in rodents) [%] | inhibition of intimal area versus injury alone (neointimal hyperplasia; two weeks after injury, rat carotid artery injury model, p<0.05) [%] | half-life [1] [h]
1 | O=C(O)C1CCCN1[N+]([O-])=NO (stereo not drawn) [PROLI/NO, 1-[2-(carboxylato)pyrrolidin-1-yl]diazen-1-ium-1,2-diolate] | 91 | 91.2 | 
2 | NCCN(CCN)/[N+]([O-])=N/O [DETA/NO] |  |  | 20
